For one test, the system named is N27 dopaminergic cells. Nature of the test: Screening of SENP-1 inhibitors (LDH, MTT, ROS, Thioflavin-T) in PFF-induced PD model in vitro. In kind it is cell-based, rat. Conditions: N27 dopaminergic cells after exposure to PFF for 24 hrs. The source says:
Cell Viability Assay. The MTT assay is a colorimetric assay that is based on the conversion of water-soluble MTT (3-(4,5-dimethylthiazol-2-yl)-2,5-diphenyltetrazolium bromide) into formazan crystal by mitochondrial dehydrogenase enzymes, soluble in 100% DMSO. The resulting solution is purple in color, and the color intensity is proportional to the viable cells for each well in a 96-well plate. A variety of SENP-1 inhibitors, such as SUMO-2 aldehyde, Momordin lc, streptonigrin, hinokiflavone, oleanolic acid and siRNA of SENP-1, were treated in N27 cells after PFF (1 μg/ml) exposure for 24 h. After adding 5 mM MTT dye to cells, the color intensity in MTT assays was measured using a spectrophotometer (SpectraMax M5e, Molecular devices, Dover, USA), at 570 nm with a reference wavelength of 630 nm. The cells were incubated with the MTT reagent (ab211091, Abcam) at 37° C. for 3 h, followed by solubilizing the formazan crystals in solution.
Cytotoxicity Assay. The lactate dehydrogenase (LDH) is a cytosolic enzyme that is released into the media during cellular stress and increased levels of cytotoxicity. The cytotoxicity assay was measured using reagents from the Pierce LDH Cytotoxicity Assay Kit (88954, Thermo). For the assay, 50 μL of media from each well after PFF exposure, followed by SENP-1 treatment, was put into wells of a new 96-well plate. The LDH reagents were prepared according to the protocol provided, and 50 μL of the LDH reagent was mixed into each well. The total 100 μL of media containing LDH and its reagent were incubated at 37° C. for 30 min, followed by the application of a stop solution. The mixture was analyzed using a spectrophotometer (SpectraMax M5e, Molecular devices) at 490 nm with a reference wavelength of 680 nm.
ROS Levels and Thioflavin-T Assessment. The reactive oxygen species (ROS) is a released byproduct during oxidative stress. On the other hand, thioflavin-T is an assay used to understand the level of protein aggregation that can be detrimental to cell survival. In order to assess the level of oxidative stress, all the SENP-1 inhibitors treated cells were incubated in media containing 5 μg/mL of the ROS reagent CellROX deep red reagent (C10422, Thermo Fisher Scientific) and 25 μg/mL of thioflavin-T reagent (CAS: 2390-54-7, Acros Organics) at 37° C. for 30 min. The cells were then washed 3 times with warm phosphate-buffered saline (PBS) without Ca^2+ or Mg^2+ (137 mM NaCl, 2.7 mM KCl, 4.3 mM Na2HPO4, and 1.47 mM KH2PO4), and several images from each well were collected using EVOS FL Cell Imaging Systems (Invitrogen, MA, USA). […] The intensity of red fluorescence corresponding to ROS levels and green labels corresponding to protein aggregation was analyzed by blinded raters using ImageJ. […]

The test system of the next test is PFF-injected old mice. Nature of the test: Grooming in PFF-injected mice. In kind it is in vivo, mouse. Conditions: 10 and/or 50 mg/kg oral, vs PFF only. Here is the method:
A mouse model of Parkinson's disease is C57BL/6 male or female mice (50% each) injected with 5 μg of mouse PFF at 12 months old, followed by a treatment below for 6-7 weeks: • 1) without PFF injection, followed by vehicle (control, n=7); • 2) PFF injection, followed by vehicle (PFF only: control, n=8); • 3) PFF injection, followed by daily 10 mg/kg Momordin gavage (n=7-8); • 4) PFF injection, followed by daily 50 mg/kg Momordin gavage (n=7-8).
Grooming. Individual pictures of each animal were taken over 3 days and analyzed for grooming capabilities. Additional data were collected over 6 weeks during the gavaging period for PFF-injected mice to monitor whether the mice in all groups performed grooming activities uniformly. The points were averaged at the end of the assessment after the mice were euthanized. The coat conditions of each animal were assessed to correlate motivation and activity levels for each animal. […] The grooming pictures were also analyzed by blinded raters and given a point out of 10, with 1 being a poor/dull coat and 10 being a shiny and healthy-looking coat.

Another test addresses T1, SENP-1 (Rattus norvegicus, UniProt A0A0G2JVG1).
T1 construct: endogenous in cells; host or cells: N27p (N27 parental) rat dopaminergic cells
T1 sequence (A0A0G2JVG1 1-672): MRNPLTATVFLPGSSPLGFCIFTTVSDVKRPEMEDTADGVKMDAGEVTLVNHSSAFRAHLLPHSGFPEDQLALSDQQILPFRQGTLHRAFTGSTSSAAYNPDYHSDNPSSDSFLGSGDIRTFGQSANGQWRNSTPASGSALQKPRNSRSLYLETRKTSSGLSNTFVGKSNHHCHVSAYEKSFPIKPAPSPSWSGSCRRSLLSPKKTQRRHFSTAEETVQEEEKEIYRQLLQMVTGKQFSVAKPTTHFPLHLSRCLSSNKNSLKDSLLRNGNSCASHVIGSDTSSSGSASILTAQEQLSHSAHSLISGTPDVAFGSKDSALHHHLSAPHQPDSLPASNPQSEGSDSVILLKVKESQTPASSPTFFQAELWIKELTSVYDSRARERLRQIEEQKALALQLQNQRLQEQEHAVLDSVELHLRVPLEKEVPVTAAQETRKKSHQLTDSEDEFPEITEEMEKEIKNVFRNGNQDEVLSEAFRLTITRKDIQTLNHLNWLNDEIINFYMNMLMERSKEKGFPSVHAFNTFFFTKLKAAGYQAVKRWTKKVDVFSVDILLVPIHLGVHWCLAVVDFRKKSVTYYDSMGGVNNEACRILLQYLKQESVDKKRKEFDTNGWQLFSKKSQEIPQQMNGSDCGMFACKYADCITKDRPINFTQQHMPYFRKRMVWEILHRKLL
Nature of the test: Western blot of SENP-1 level in PFF-exposed N27p cells. Conditions: PFF exposure, compared with PFF only. It is filed as cell-based. An excerpt: A) The RNA interference suppressed the expression level of SENP-1, which enhanced SUMO-1 level. […] One-Way ANOVA, Dunnett's test was applied for statistical analysis in comparison with PFF only (#). *: p<0.05, **: p<0.01, p<0.001 and n.s.: not significant.
Background: Immunoblotting shows a protein as a band on a membrane.

For test [1], the system named is N27 dopaminergic cell line. Nature of the test: In vitro cell death induced by MPP+ or PFF. It is filed as cell-based, rat. Conditions: MPP+ or PFF-mediated toxic conditions.

Turning to `CC1(C)CC[C@]2(C(=O)O)CC[C@]3(C)C(=CC[C@@H]4[C@@]5(C)CC[C@H](O[C@@H]6O[C@H](C(=O)O)[C@@H](O)[C@H](O[C@@H]7OC[C@@H](O)[C@H](O)[C@H]7O)[C@H]6O)C(C)(C)[C@@H]5CC[C@]43C)[C@@H]2C1` [Momordin lc], in the test with N27 dopaminergic cells, the “efficacy in preventing protein aggregation-mediated damage and reversing PFF-induced damage (LDH, MTT, ROS, Thioflavin-T assays)” value is listed as “clearly efficacious”. Also, the grooming entry in the test with PFF-injected old mice is on record as “improves”. Besides, the “level of SENP-1 (Western blot)” value on SENP-1 was “reduced the level of SENP-1”. Also, the “protection against in vitro cell death” value in test [1] is reported as “protect against in vitro cell death”.

The values above are taken from patent US20260021167A1, “COMPOSITIONS AND METHODS FOR TREATING OR PREVENTING NEURODEGENERATIVE DISEASES” (Delaware State University, priority 2022, published 2026).
